# Measured values published in publication PMC3174152, “Pseudomonas aeruginosa 4-Amino-4-Deoxychorismate Lyase: Spatial Conservation of an Active Site Tyrosine and Classification of Two Types of Enzyme” (PLoS ONE, 2011).
# Molecular target: T1, PaPabC (Pseudomonas aeruginosa, UniProt Q9HZN6)
# T1 construct: gene pabC; full length (271 residues), N-terminal His6 tag with TEV site kept (not cleaved), modified pET15b, E. coli BL21(DE3) Gold; homodimer, about 50 kDa
# T1 sequence (Q9HZN6 1-271): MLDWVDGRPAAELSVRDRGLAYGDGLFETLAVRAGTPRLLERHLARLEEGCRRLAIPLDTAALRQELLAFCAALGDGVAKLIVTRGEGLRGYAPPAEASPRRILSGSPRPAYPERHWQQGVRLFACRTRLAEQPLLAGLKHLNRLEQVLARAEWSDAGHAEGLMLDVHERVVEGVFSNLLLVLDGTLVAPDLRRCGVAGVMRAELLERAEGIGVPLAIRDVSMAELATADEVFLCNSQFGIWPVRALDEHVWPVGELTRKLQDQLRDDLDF
# Experiment: X-ray crystal structure ([…] Å), omit map
# Assay type: binding
# Details: covalent, Schiff base with Lys140; Tyr92 of partner subunit contacts PLP O3; crystallised with 0.1 mM PLP and 10 mM PABA, pH 6.5
smiles,measurement,value
Cc1ncc(COP(=O)(O)O)c(C=O)c1O [PLP],"X-ray crystal structure (1.75 Å), omit map",The presence of the PLP cofactor covalently bound to Lys140 was confirmed
